Measurements: US20090281106A1, “PROPHYLACTIC AND/OR THERAPEUTIC METHOD FOR RHEUMATOID ARTHRITIS” (Kowa Co., Ltd, priority 2005, published 2009)

Test system: rat collagen-induced arthritis model
Assay: rat collagen-induced arthritis model, edema suppression in both hindlimbs
Format: in vivo, female Lewis rat (LEW/Crj)
Details: oral, Drug A 3 mg/kg twice a day, Drug B 1.5 mg/kg once a day; for Relative index: edema volume of group / control group; for Edema volume for both hindlimbs: average ± standard error of 5 to 6 rats; for Decreasing rate: vs control group; for edema suppressive effect (in words): sole administration
Procedure: For the cases of combined administration of 2-benzyl-5-(4-chlorophenyl)-6-[4-(methylthio)phenyl]-2H-pyridazin-3-one (the product synthesized by the above-described method is used) (Drug A) and leflunomide (Drug B), and respective single drug administrations, the effect of edema suppression in both hindlimbs was determined by the following method (rat collagen-induced arthritis model) (FDA, CBER, CDER, CDRH: Guidance for industry—Clinical development programs for drugs, devices, and biological products for the treatment of rheumatoid arthritis (RA)—. (1999)). In addition, the test animal used was female Lewis rat (LEW/Crj) (obtained from Charles River Laboratories Japan, Inc.).
For each 8-week-old LEW/Crj rat, the volume of a portion extending from the ankle to the paw was measured for both hindlimbs (hereinafter, hindlimbs volume) by means of a plethysmometer for small animals (TK-101CMP, product of Unicom), and the total volume was taken as the hindlimbs volume upon initiation of test (hereinafter, Pre value). This Pre value was used as an index to divide the rats into groups by one-parameter-based block randomization, so that the values in the respective groups averaged out.
The collagen emulsion for sensitization that was used to induce arthritis in rats, was prepared by homogenizing a 0.3% Type II collagen solution (Collagen Research Center), Adjuvant Peptide (Peptide Institute, Inc.) and Adjuvant Incomplete Freund (DIFCO), using a Handy Micro Homogenizer (Microtec Nition, Co., Ltd.) under ice-cooling. The collagen emulsion thus prepared was intracutaneously administered at 10 sites in the back of each rat at a dose of 0.1 mL/site, to perform initial sensitization of the rat. Seven days after the initial sensitization, 0.12 mL of the same collagen emulsion was intracutaneously administered to the tail head of each rat, to perform booster sensitization.
Drug administration was conducted from the day after the initial sensitization through 29 days thereafter. The group for sole administration of Drug A was orally administered with the drug at 3 mg/kg, twice a day, in the morning (9:00 to 11:00) and in the evening (15:30 to 17:30). The group for sole administration of Drug B was orally administered with the drug at 1.5 mg/kg, once a day, in the afternoon (11:30 to 13:30). On the other hand, the group for combined administration of Drug A and Drug B was orally administered with Drug A at 3 mg/kg in the morning (9:00 to 11:00) and in the evening (15:30 to 17:30), and with Drug B at 1.5 mg/kg in the afternoon (11:30 to 13:30).
14, 18, 21, 26 and 31 days after the initial sensitization, the hindlimbs volume was measured again for each rat, and the difference between each of the values and the Pre value was determined to calculate the edema volume for both hindlimbs.
Tables 1 to 4 and FIGS. 1 to 4 represent the edema volume for both hindlimbs after 18, 21, 26 and 31 days from the initial sensitization, respectively, of the group for sole administration of Drug A, the group for sole administration of Drug B and the group for combined administration. The edema volume for both hindlimbs (mL) is expressed in the average value±standard error of 5 to 6 rats in each group. Furthermore, the decreasing rate is indicated as (average value of edema volume for both hindlimbs for the control group−the average value of edema volume for hindlimbs for each group)/(average value of edema volume for both hindlimbs for the control group)×100, while the relative index is indicated as (average value of edema volume for both hindlimbs for each group)/(average value of edema volume for both hindlimbs for the control group).

[1] = 18 days after initial sensitization
[2] = 21 days after initial sensitization
[3] = 26 days after initial sensitization
[4] = 31 days after initial sensitization

Compound	Relative index [1]	Edema volume for both hindlimbs [1]	Decreasing rate [1]	Relative index [2]	Edema volume for both hindlimbs [2]	Decreasing rate [2]	Relative index [3]	Edema volume for both hindlimbs [3]	Decreasing rate [3]	Relative index [4]	Edema volume for both hindlimbs [4]	Decreasing rate [4]	edema suppressive effect (in words)
Cc1oncc1C(=O)Nc1ccc(C(F)(F)F)cc1 [Drug B, N-(4-trifluoromethylphenyl)-5-methylisoxazole-4-carboxamide]	0.28	0.57 ± 0.32 mL	72%	0.34	0.58 ± 0.31 mL	66%	0.49	0.78 ± 0.28 mL	51%	0.57	0.81 ± 0.26 mL	43%	decrease in the edema suppressive effect in the stage after 18 days from the initial sensitization
CSc1ccc(-c2nn(Cc3ccccc3)c(=O)cc2-c2ccc(Cl)cc2)cc1 [Drug A, 2-benzyl-5-(4-chlorophenyl)-6-[4-(methylthio)phenyl]-2H-pyridazin-3-one]	0.89	1.79 ± 0.17 mL	11%	0.90	1.54 ± 0.17 mL	10%	0.99	1.58 ± 0.27 mL	1%	1.02	1.44 ± 0.26 mL	−2%	did not show a potent edema suppressive effect
